Data from the RepoRT retention time repository (doi:10.1016/j.jchromb.2020.122105).

Legend:
Settings in all cases: stereoisomer not certain
[1] = RP, Waters ACQUITY UPLC BEH C18, 100 × 2.1 mm, 1.7 µm, 0.1 mL/min, estimated dead time 2.2 min; A: water + 0.1% formic acid, pH 3; B: methanol + 0.1% formic acid, pH 3; gradient (min/%B) 0/5 5/5 25/100 30/100 30.1/5 35/5
[2] = RP, Waters CORTECS T3, 100 × 2.1 mm, 2.7 µm, 0.2 mL/min, estimated dead time 1.1 min; A: water + 0.045% formic acid + 0.11% ammonium hydroxide, pH 7; B: methanol; gradient (min/%B) 0/5 5/5 25/95 25.1/100 35/100 35.1/5 45/5
[3] = RP, Waters ACQUITY UPLC BEH C18, 100 × 2.1 mm, 1.7 µm, 0.1 mL/min, estimated dead time 2.2 min; A: water + 0.045% formic acid + 0.11% ammonium hydroxide, pH 7; B: methanol; gradient (min/%B) 0/5 5/5 25/95 25.1/100 35/100 35.1/5 45/5
[4] = RP, Thermo Scientific Hypercarb, 150 × 2.1 mm, 5 µm, 0.1 mL/min, estimated dead time 3.3 min; A: water + 0.1% formic acid, pH 3; B: methanol + 0.1% formic acid, pH 3; gradient (min/%B) 0/5 5/5 20/100 35/100 35.1/5 45/5
[5] = RP, Waters ACQUITY UPLC BEH C18, 100 × 2.1 mm, 1.7 µm, 0.2 mL/min, estimated dead time 1.1 min; A: water + 0.025% formic acid + 20 mM ammonium acetate + 0.055% ammonium hydroxide, pH 7; B: methanol; gradient (min/%B) 0/5 5/5 25/100 30/100 30.1/5 35/5
[6] = HILIC, Merck SeQuant ZIC-HILIC, 150 × 2.1 mm, 5 µm, 0.75 mL/min, estimated dead time 0.44 min; A: water + 0.1% acetic acid + 10 mM ammonium acetate, pH 4; B: 5% water + 95% acetonitrile + 0.1% acetic acid + 10 mM ammonium acetate, pH 4; gradient (min/%B) 0/95 5/95 20/57 25/57 30/95 40/95
[7] = RP, Waters CORTECS T3, 100 × 2.1 mm, 2.7 µm, 0.15 mL/min, estimated dead time 1.5 min; A: water + 0.1% formic acid, pH 3; B: methanol + 0.1% formic acid, pH 3; gradient (min/%B) 0/0 1/0 6/5 30/100 35/100 35.1/0 40/0
[8] = RP, Waters CORTECS T3, 100 × 2.1 mm, 2.7 µm, 0.25 mL/min, estimated dead time 0.88 min; A: water + 0.1% formic acid, pH 3; B: methanol + 0.1% formic acid, pH 3; gradient (min/%B) 0/0 1/0 6/5 30/100 35/100 35.1/0 40/0
[9] = RP, Waters CORTECS T3, 100 × 2.1 mm, 2.7 µm, 0.3 mL/min, estimated dead time 0.73 min; A: water + 0.1% formic acid, pH 3; B: methanol + 0.1% formic acid, pH 3; gradient (min/%B) 0/0 5/0 25/100 30/100 30.1/0 35/0
[10] = RP, Waters CORTECS T3, 100 × 2.1 mm, 2.7 µm, 0.3 mL/min, estimated dead time 0.73 min; A: water + 0.1% formic acid, pH 3; B: methanol + 0.1% formic acid, pH 3; gradient (min/%B) 0/0 1/0 6/5 30/100 35/100 35.1/0 40/0
[11] = RP, Waters CORTECS T3, 100 × 2.1 mm, 2.7 µm, 0.3 mL/min, estimated dead time 0.73 min; A: water + 0.1% formic acid, pH 3; B: methanol + 0.1% formic acid, pH 3; gradient (min/%B) 0/5 5/5 25/100 30/100 30.1/5 35/5
[12] = RP, Waters CORTECS T3, 100 × 2.1 mm, 2.7 µm, 0.2 mL/min, estimated dead time 1.1 min; A: water + 0.1% formic acid, pH 3; B: methanol + 0.1% formic acid, pH 3; gradient (min/%B) 0/5 5/5 25/95 25.1/100 35/100 35.1/5 45/5
[13] = RP, Waters CORTECS T3, 100 × 2.1 mm, 2.7 µm, 0.2 mL/min, estimated dead time 1.1 min; A: water + 0.1% formic acid, pH 3; B: methanol + 0.1% formic acid, pH 3; gradient (min/%B) 0/0 1/0 6/5 30/100 35/100 35.1/0 40/0
[14] = RP, Waters CORTECS T3, 100 × 2.1 mm, 2.7 µm, 0.3 mL/min, estimated dead time 0.73 min; A: water + 0.1% formic acid, pH 3; B: methanol + 0.1% formic acid, pH 3; gradient (min/%B) 0/5 5/5 25/95 25.1/100 35/100 35.1/5 45/5

Compound | LC retention time [3] [min] | LC retention time [4] [min] | LC retention time [5] [min] | other results
C[n+]1cccc(C(N)=O)c1 [1-METHYLNICOTINAMIDE] |  | 4.94 | 1.35 | 
O=C(O)CCCC(=O)C(=O)O [2-OXOADIPATE] |  |  |  | LC retention time [6]: 12.9 min
OCC(O)c1ccc(O)c(O)c1 (centres undefined) [3,4-DIHYDROXYPHENYL GLYCOL] |  |  |  | LC retention time [6]: 4.12 min
Nc1c(O)cccc1C(=O)CC(N)C(=O)O (centres undefined) [3-HYDROXYKYNURENINE] |  |  |  | LC retention time [1]: 2.83 min
COc1cc(CCN)ccc1O [3-METHOXYTYRAMINE] | 9.22 | 20.5 |  | LC retention time [2]: 4.87 min
Cn1cncc1CCN [3-METHYLHISTAMINE] | 3.44 | 4.64 | 1.81 | LC retention time [2]: 1.73 min
O=C1CCNC(=O)N1 [5,6-DIHYDROURACIL] |  |  |  | LC retention time [1]: 2.76 min
N[C@@H](Cc1c[nH]c2ccc(O)cc12)C(=O)O [5-HYDROXY-L-TRYPTOPHAN] |  |  |  | LC retention time [11]: 2.7 min
NCCCNCCCN [BIS(3-AMINOPROPYL)AMINE] |  | 41 |  | 
C[N+](C)(C)CCO [CHOLINE] |  |  | 1.35 | 
COC1=C(OC)C(=O)C(CC=C(C)CCC=C(C)CCC=C(C)CCC=C(C)CCC=C(C)CCC=C(C)CCC=C(C)CCC=C(C)CCC=C(C)CCC=C(C)C)=C(C)C1=O [COENZYME Q10] | 37.8 |  |  | 
CN1CC(=O)NC1=N [CREATININE] |  | 4.94 | 1.39 | LC retention time [8]: 1.06 min
Nc1ccnc(=O)[nH]1 [CYTOSINE] |  | 13.9 | 1.44 | LC retention time [8]: 1.06 min; LC retention time [10]: 0.9 min
OCCNCCO [DIETHANOLAMINE] |  |  | 1.35 | 
O=C(O)C(O)c1ccc(O)c(O)c1 (centres undefined) [DIHYDROXYMANDELIC ACID] |  |  |  | LC retention time [6]: 4.4 min
O=C(O)CNC(=O)c1ccccc1 [HIPPURATE] |  |  |  | LC retention time [1]: 14.1 min

Compound | LC retention time [3] [min] | LC retention time [4] [min] | LC retention time [5] [min] | other results
NCCc1cnc[nH]1 [HISTAMINE] | 3.13 | 4.61 | 1.44 | LC retention time [2]: 1.54 min
CS(=N)(=O)CCC(N)C(=O)O [L-METHIONINE SULFOXIMINE] |  | 4.77 |  | 
CC(C)=CCCC(C)C1CCC2(C)C3=C(CCC12C)C1(C)CCC(O)C(C)(C)C1CC3 (centres undefined) [LANOSTEROL] |  |  | 26.4 | 
CN=C(N)N [METHYLGUANIDINE] |  | 4.05 | 1.39 | LC retention time [8]: 1.06 min
CC(=O)NC1C(O)CC(O)(C(=O)O)OC1C(O)C(O)CO (centres undefined) [N-ACETYLNEURAMINATE] |  |  |  | LC retention time [6]: 12.9 min
CCCCCCCCCCCCCCCC(=O)O [PALMITATE] | 36.8 |  |  | LC retention time [12]: 33.8 min
NCCc1ccccc1 [PHENETHYLAMINE] | 20.4 |  |  | 
c1ccc2ncccc2c1 [QUINOLINE] | 16.1 | 4.84 |  | LC retention time [2]: 11.7 min
C[Se]CCC(N)C(=O)O (centres undefined) [SELENOMETHIONINE] |  |  |  | LC retention time [1]: 4.52 min
NCCCCNCCCN [SPERMIDINE] |  | 41 |  | 
CCCCCCCCC=CCCCCCCCC(=O)NC(COP(=O)([O-])OCC[N+](C)(C)C)C(O)C=CCCCCCCCCCCCCC (centres undefined) [SPHINGOMYELIN (d36:2)] | 37.5 |  |  | LC retention time [2]: 28.7 min
Cc1ncc(C[n+]2csc(CCOP(=O)(O)O)c2C)c(N)n1 [THIAMINE MONOPHOSPHATE] | 3.87 | 18 | 1.42 | LC retention time [7]: 1.78 min; LC retention time [9]: 0.89 min
Cc1ncc(C[n+]2csc(CCO)c2C)c(N)n1 [THIAMINE] |  | 19.1 | 3.78 | LC retention time [7]: 1.78 min; LC retention time [9]: 0.89 min
C=C1CCC(O)CC1=CC=C1CCCC2(C)C1CCC2C(C)C=CC(C)C(C)C (centres undefined) [VITAMIN D2] | 33.6 |  |  | 
O=c1[nH]c(=O)c2ncn(C3OC(CO)C(O)C3O)c2[nH]1 (centres undefined) [XANTHOSINE] |  |  |  | LC retention time [6]: 11.6 min; LC retention time [12]: 11.9 min

Second part, led by results:

LC retention time [3] [min] | LC retention time [4] [min] | LC retention time [5] [min] | Compound | other results
29.1 |  |  | CCCCCCCCCCCCCC(=O)OCC(O)CO (racemic) [RAC-GLYCEROL 1-MYRISTATE] | LC retention time [1]: 28.2 min; LC retention time [2]: 25.4 min
 | 4.48 |  | NC1(C(=O)O)CC1 [1-AMINOCYCLOPROPANE-1-CARBOXYLATE] | 
 | 13 | 1.39 | NC(N)=NCCCC(=O)O [4-GUANIDINOBUTANOATE] | LC retention time [7]: 1.8 min; LC retention time [1]: 2.71 min; LC retention time [8]: 1.06 min; LC retention time [9]: 0.91 min; LC retention time [10]: 0.9 min
3.67 |  | 1.44 | NCCCCN=C(N)N [AGMATINE] | LC retention time [2]: 1.58 min
 |  | 1.35 | CN(CC(=O)O)C(=N)N [CREATINE] | 
 | 5.04 |  | NC(N)=NCC(=O)O [GUANIDINOACETATE] | 
 | 14 |  | NC(CCS)C(=O)O (centres undefined) [HOMOCYSTEINE] | 
 | 4.77 |  | NC(N)=NCCC[C@H](N)C(=O)O [L-ARGININE] | 
 | 4.86 |  | N[C@@H](CCSC[C@H](N)C(=O)O)C(=O)O [L-CYSTATHIONINE] | 
 | 4.99 |  | N[C@@H](CSSC[C@H](N)C(=O)O)C(=O)O [L-CYSTINE] | 
10.2 | 24.8 |  | N[C@@H](Cc1ccc(O)cc1)C(=O)O [L-TYROSINE] | LC retention time [2]: 5.83 min
20 |  |  | NC(=O)CCCCC1CCSS1 (centres undefined) [LIPOAMIDE] | LC retention time [2]: 16 min
 | 4.49 |  | NC(CCCC(N)C(=O)O)C(=O)O (centres undefined) [LL-2,6-DIAMINOHEPTANEDIOATE] | LC retention time [12]: 2.41 min
34.6 |  |  | CC(C)=CCCC(C)=CCCC(C)=CCCC(C)=CCC1=C(C)C(=O)c2ccccc2C1=O [MENAQUINONE] | 
 | 4.77 | 1.88 | Cn1cncc1CC(N)C(=O)O [N(PAI)-METHYL-L-HISTIDINE] | 
 |  | 1.39 | CC(=O)NCCCCN [N-ACETYLPUTRESCINE] | LC retention time [7]: 1.8 min; LC retention time [1]: 2.71 min
 | 26.7 |  | NC(=O)c1ccc[n+](C2OC(COP(=O)([O-])O)C(O)C2O)c1 (centres undefined) [NICOTINAMIDE MONONUCLEOTIDE] | LC retention time [1]: 2.69 min
 | 16.2 |  | N[C@@H](CCOC(=O)CCC(=O)O)C(=O)O [O-SUCCINYL-L-HOMOSERINE] | LC retention time [7]: 1.83 min; LC retention time [13]: 1.34 min; LC retention time [1]: 2.74 min; LC retention time [14]: 0.9 min; LC retention time [8]: 1.09 min; LC retention time [9]: 0.93 min; LC retention time [10]: 0.92 min
29.4 |  |  | CCCCCCC=CCCCCCCCC(=O)O [PALMITOLEIC ACID] | 
 | 14.8 |  | N[C@@H](CSCC(=O)O)C(=O)O [S-CARBOXYMETHYL-L-CYSTEINE] | 
